Values belong to the substance of their own block, whether it stands above or below them.
Assays:
[1] = SPR of immobilization of cutinase to SAM terminated in phosphonate binding partner; settings: PBS pH 7.4; not removed by SDS 0.5 mg/mL
Procedure: A self-assembled monolayer (SAM) terminated in a phosphonate binding partner moiety was prepared. The ligand was present at a low density mixed with tri(ethylene glycol) groups, which resist non-specific protein adsorption. The immobilization of cutinase to the monolayer was characterized by SPR spectroscopy. Phosphate buffered saline (pH 7.4) was flowed over the monolayer for 2 min to establish a baseline, followed by a solution of protein in the same buffer for 10 min to observe binding. Finally, the protein solution was replaced with buffer for 6 min to quantitate the amount of protein that was irreversibly immobilized.

[2] = biological target: T1, β1,4-galactosyltransferase (Bos taurus, UniProt P08037); experiment: Glycosyltransferase assay on immobilized carbohydrates (UDP [14C] galactose, phosphorimaging); assay type: biochemical, bovine; settings: three immobilized carbohydrate substrates; UDP [^14C] galactose 3.5 μM
T1 sequence (P08037 1-402): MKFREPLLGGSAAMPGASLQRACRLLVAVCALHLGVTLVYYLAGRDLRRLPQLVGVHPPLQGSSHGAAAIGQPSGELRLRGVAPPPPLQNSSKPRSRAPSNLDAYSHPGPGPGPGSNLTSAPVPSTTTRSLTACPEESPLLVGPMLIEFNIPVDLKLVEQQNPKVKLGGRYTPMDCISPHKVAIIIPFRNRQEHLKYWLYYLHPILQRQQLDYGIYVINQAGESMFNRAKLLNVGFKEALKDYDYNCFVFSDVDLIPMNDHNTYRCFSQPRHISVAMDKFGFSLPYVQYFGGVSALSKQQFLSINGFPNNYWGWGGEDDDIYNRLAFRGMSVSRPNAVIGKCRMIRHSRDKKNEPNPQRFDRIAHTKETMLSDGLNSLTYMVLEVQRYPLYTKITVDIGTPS
Procedure: FIG. 12 depicts the results of a Glycosyltransferase assay. The surface comprises three different carbohydrate substrates defined by columns and a control column (no substrate). Each row was reacted with a different concentration of β1,4-galactosyltransferase and a constant concentration of sugar donor (UDP [^14C] galactose, 3.5 μM). The reaction was detected by phosphorimaging.
Referring to FIG. 12, in the glycosyltransferase assay, various carbohydrates were immobilized using a thiol chemical tag to bond to a monolayer thiolate bearing a maleimide group. A glycosyltransferase enzyme was added to the immobilized carbohydrates. The ability of the enzyme to add radioactively labeled sugars to the immobilized carbohydrates was measured. In the glycosyltransferase assay the enzyme that was employed is bovine recombinant β1,4-galactosyltransferase. Preferably, the enzyme is at a concentration of about 10 pM to about 100 uM. More preferably, the enzyme is at a concentration of about 100 pM to about 1 uM.
Detection of glycosylation of the immobilized carbohydrate substrates on the base plate was performed radiometrically. The incorporation of ^14C was quantified by exposing a storage phosphor screen to the plate and then imaging it on a Variable Mode Imager (Typhoon 8600; Molecular Dynamics, Sunnyvale, Calif.). […]

streptavidin = streptavidin (Streptomyces avidinii, UniProt P22629); experiment: SPR of streptavidin binding to maleimide SAM treated with biotinylated model peptides; settings: SAM presenting maleimide at 2%, then streptavidin
Description: Michael acceptor-derivatized surfaces like that depicted in FIG. 1 are well adapted for selectively immobilizing and orienting functional organic molecules for such uses as biosensors, high throughput assays, binding assays, enzymatic assays and cell cultures. […] Surface binding was detected using biotinylated, cysteine-containing peptides and streptavidin. SAMs presenting the maleimide group at a density of 2% were applied to gold-coated coverslips according to the Examples. The SAM coated coverslips were each treated with solutions containing various reactive molecules dissolved in phosphate buffer (pH 6), and the reactivity of the surface was characterized by flowing the protein streptavidin, which selectively binds biotin, over the SAM. Streptavidin binding was quantitated by surface plasmon resonance.
Referring to FIG. 3, sensorgram (A), the SAM-coated coverslip was treated with a solution of the model biotinylated peptide biotin-NH-Arg-Asp-Cys-CONH2 (1.2 mM) for 12 minutes. 2280 RU of streptavidin binding was observed. Sensorgram (B) was obtained using a solution containing a mixture of the model peptide (0.6 mM) and lysine (16 mM). […]
SPR was performed with a Biacore 3000 instrument. Gold-coated glass microscope cover glass presenting SAMs to be analyzed were mounted in SPR cartridges. […]

[3] = SPR of biospecific-covalent attachment of cutinase-fusion protein to PNPP-terminated surfaces; assay type: binding
Procedure: A gold chip that presents 1.5% maleimide groups in a background of EG3 was exposed to a 5 mM methanolic solution of (8-mercapto-octyl)-phosphonic acid ethyl ester 4-nitro-phenyl ester—the bifunctional molecule (compound 5; HS-PNPP)—for 1 hour. During this process the thiol group of HS-PNPP reacts with the maleimide groups at the surface and results in 1.5% of a monolayer of the PNPP ligand being presented at the surface.
The chip created above was then loaded into the SPR machine that contacts a microfluidic manifold to the gold chip to allow different solutions to be delivered to the surface in up to 4 flow channels. The following fluidic protocol was then applied to the surface and the SPR signal—which measures the mass of protein that adsorbs to the surface—was measured as a function of time:
t=0 to 300 s. Flow channels 1-3 (Fc=1 to 3) were all exposed to 20 mM tris (pH 7.4) buffer t=300 to 1500 s. Fc=1 to 3 were then exposed to 3 different solutions: Fc=1: 500 ug/mL fibrinogen in 20 mM tris (pH 7.4) buffer Fc=2: 40 microM of cutinase fused to hexahistidine (cutinase-his6) in 20 mM tris buffer Fc=3: 40 microM of cutinase-his6 pre-mixed with 100 microM of PNPP t=1500 to 2250 s. Fc=1 to 3 were all exposed to 20 mM tris (pH 7.4) buffer t=2250 to 2850 s. Fc=1 to 3 were all exposed to 8 mM SDS in 20 mM tris (pH 7.4) buffer t>2850 s. Fc=1 to 3 were all exposed to 20 mM tris (pH 7.4) buffer

[4] = SPR of protein adsorption on biotin-presenting maleimide/EG3 mixed SAM surface (specific binding and NSB)
Procedure: FIG. 4 is a surface plasmon resonance sensorgram of a SAM presenting maleimide at a density of 2%. The SAM-coated coverslip was treated with the biotinylated, thiol-containing, model peptide biotin-NH-Arg-Asp-Cys-CONH2 (1.2 mM) for 12 minutes. Afterwards, a solution of the “sticky” protein fibrinogen (0.5 mg/mL) was flowed over the surface. Only 60 RU of adsorption was observed. Another coverslip was treated with the model peptide solution and then treated with streptavidin that had been pre-incubated with biotin.
A gold chip that presents 1.5% maleimide groups in a background of EG3 was loaded into an SPR machine (Biacore 3000). Two flow channels over this chip were simultaneously exposed to cysteine-biotin that reacts with the maleinide in order to present 1.5% biotin at the surface. Subsequently, one channel was exposed to 70 ug/mL of streptavidin and then one channel was exposed to 500 ug/mL of fibrinogen.
SPR was performed with a Biacore 3000 instrument. Gold-coated glass microscope cover glass presenting SAMs to be analyzed were mounted in SPR cartridges. All experiments used a flow rate of 10 μL/min.

Substance: Cutinase: recombinant Fusarium solani pisi cutinase expressed in E. coli
binding to phosphonate monolayer [1]: bound irreversibly to the surface

Substance: GlcNAc
substrate for the enzyme [2]: only the immobilized GlcNAc was a substrate

Substance: biotin-NH-Arg-Asp-Cys-CONH2
streptavidin binding (streptavidin; peptide 1.2 mM for 12 minutes): 2280 RU

Substance: biotin-NH-Arg-Asp-Lys-CONH2
streptavidin binding (streptavidin; peptide 4 mM for 12 minutes): no streptavidin binding

Substance: cutinase-his6: cutinase fused to hexahistidine
protein immobilized ([3]; Fc=2, 40 microM in 20 mM tris buffer): 1150 RU
protein immobilized after SDS wash ([3]; Fc=2, after 8 mM SDS wash): 1080 RU
adsorption after preincubation with PNPP ([3]; Fc=3, 40 microM pre-mixed with 100 microM PNPP): 30 RU

non-specific binding to PNPP surface ([3]; Fc=1, 500 ug/mL fibrinogen): did not stick to this surface
signal change caused by adsorption (NSB) ([4]; 1.5% maleimide in EG3 reacted with cysteine-biotin, 500 ug/mL fibrinogen): 90 RU
adsorption (non-specific) ([4]; SAM 2% maleimide treated with biotin-NH-Arg-Asp-Cys-CONH2, fibrinogen 0.5 mg/mL): 60 RU
Substance: fibrinogen

signal change caused by adsorption ([4]; 1.5% maleimide in EG3 reacted with cysteine-biotin, 70 ug/mL streptavidin): 2100 RU
Substance: streptavidin: protein which selectively binds biotin

Source: patent US20090325262A1, “Immobilization of biological molecules onto surfaces coated with monolayers” (SURFACE LOGIX, INC., priority 2001, published 2009)
